“Also recorded” adds a separate entry of the source. Each block holds one compound with its values, some of them ahead of it.
Assays:
[1] = biological target: full-length CRBN (MG-PACE circuit, SD35) (Homo sapiens, UniProt Q96SW2); experiment: Two-hybrid luciferase transcriptional activation in PMBN-permeabilized E. coli by compound-induced ternary complex of RR69–human full-length CRBN with ω–degron, about 1 h at 37 °C, four-parameter fit.; type: cell-based, E. coli S2060; details: n = 3
[2] = biological target: full-length CRBN (MG-PACE circuit, SD31) (Homo sapiens, UniProt Q96SW2); experiment: as above; type: cell-based, E. coli S2060; details: n = 3
From the text: (§1) To evolve ZFs that engage PT-179-bound CRBN, we constructed an MG-PACE circuit using the CRBN•IMiD•ZF molecular glue complex. […] We translationally fused CRBN to the DNA-binding protein RR69 and fused SD0 to the RNAP ω-subunit, then measured transcriptional activation by luminescence (Fig. 2A).
(§2) Figure 2. […] (A) Full-length CRBN MG-PACE circuit. (B) CRBNCTD MG-PACE circuit. […] Values and error bars in (C), (E), and (H) represent the mean and standard deviation of three replicates, each normalized to a control treatment with DMSO only. Dashed vertical lines in (D), (F), and (G) represent neutral drift passages.
(§3) Chemically competent S2060 cells were co-transformed with accessory and complementary plasmids (Table S1).

[3] = biological target: full-length CRBN (MG-PACE circuit, SD36) (Homo sapiens, UniProt Q96SW2); experiment: as above; type: cell-based, E. coli S2060; details: n = 3
From the text: as §1, §2, §3

[4] = biological target: T1, mmCRBN (MG-PACE circuit, SD55) (Mus musculus, UniProt Q8C7D2); experiment: Two-hybrid luciferase transcriptional activation in PMBN-permeabilized E. coli by compound-induced ternary complex of mouse CRBN with evolved degron, about 1 h at 37 °C, four-parameter fit.; type: cell-based, E. coli S2060; details: n = 3
T1 construct: gene Crbn; mouse cereblon in mmCRBN MG-PACE circuit, partner SD55 (evolved ZF degron), in E. coli
From the text: (§4) Compared to human CRBN, mouse cereblon (mmCRBN) contains a V388I mutation that prevents IMiD-induced recruitment of ZF neosubstrates ([8]). The development of a potent and compact degron that is compatible with mmCRBN would facilitate studies that modulate target protein function in mouse systems. We hypothesized that MG-PACE could evolve degrons that overcome this difference in mmCRBN and respond to PT-179 in mouse cells. We constructed a mmCRBN MG-PACE circuit (Fig. 5A) and performed a total of 205 hours of PACE seeded with SD36-encoding phage (Fig. 5B).
(§5) Figure 5. MG-PACE evolves degrons that engage PT-179-bound mouse CRBN. (A) The mmCRBN MG-PACE circuit. Stringency is increased by expression of a competing ZF degron fused to maltose binding protein (MBP). (B) PACE in the mmCRBN MG-PACE circuit. (C) Mutations in evolved PT-179•mmCRBN-binding degrons. (D) PT-179-induced mmCRBN circuit activation (1 hr) by SD0 and evolved variants. […]
(§6) Chemically competent S2060 cells were co-transformed with accessory and complementary plasmids (Table S1). […] 96-well plates were then incubated in an Infinite M1000 Pro microplate reader (Tecan) at 37 °C with continuous shaking for ~1 hour prior to reading A600 nm and luminescence values. Raw luminescence values were then divided by the corresponding A600 nm values to normalize to cell density.

[5] = biological target: T2, mmCRBN (MG-PACE circuit, SD56) (Mus musculus, UniProt Q8C7D2); experiment: as above; type: cell-based, E. coli S2060; details: n = 3
T2 construct: gene Crbn; mouse cereblon in mmCRBN MG-PACE circuit, partner SD56 (evolved ZF degron), in E. coli
From the text: as §4, §5, §6

FRB = details: read-out: KD for FRB without FKBP12; cited from earlier work
FKBP12 and FRB = FKBP12 and FRB (Homo sapiens, UniProt P42345+P62942); experiment: Rapamycin-sensitive MG-PACE circuit, luciferase activation; type: cell-based, E. coli; details: without PMBN
From the text: as §3

degron-tagged eGFP = experiment: Degron-tagged eGFP degradation by flow cytometry in HEK293T cells; type: cell-based, human
DDB1•CRBN = biological target: T3, DDB1•CRBN (Homo sapiens, UniProt Q96SW2); experiment: Competitive fluorescence anisotropy (polarization) vs thalidomide-Cy5; type: binding
T3 construct: made in house
Procedure: Competitive fluorescence polarization experiments were performed according to previously reported methods ([65]). All experiments were performed in 25 mM HEPES, […], 1 mM TCEP, pH 7.4. A pre-complexed sample was prepared by incubating DDB1-CRBN (400 nM) with thalidomide–Cy5 conjugate (fig. S2A) (80 nM) at RT for 30 minutes with gentle shaking (220 rpm). […] Polarization values were measured on an Infinite M1000 Pro microplate reader (Tecan) following 1 hour of incubation at RT with gentle shaking. A total of three independent measurements were acquired and averaged per biological sample to generate the values shown in figure S2C. All mP values were normalized between 0 and 100 using the formula NormalizedmP=[(x−minimum)/[…]]∗100 , where ‘‘x’’ is the mP value of the sample and ‘‘minimum’’ and ‘‘maximum’’ are the minimum and maximum mP values, respectively, across all samples. KD values were estimated from computed Ki-values as previously described ([65]).

SMILES: O=C1CCC(N2C(=O)c3ccc(N4CCOCC4)cc3C2=O)C(=O)N1 (centres unmarked) [PT-179, PT-179 (thalidomide derivative with a morpholine at the phthalimide 5-position, without the 4-amino group)]
EC50 [1]: 557 nM
EC50 [2]: 3250 nM
EC50 [3]: 217 nM
EC50 [4]: 1110 nM
EC50 [5]: 225 nM

SMILES: CO[C@H]1C[C@@H]2CC[C@@H](C)[C@@](O)(O2)C(=O)C(=O)N2CCCC[C@H]2C(=O)O[C@H]([C@H](C)C[C@@H]2CC[C@@H](O)[C@H](OC)C2)CC(=O)[C@H](C)/C=C(\C)[C@@H](O)[C@@H](OC)C(=O)[C@H](C)C[C@H](C)/C=C/C=C/C=C/1C [rapamycin]
Kd (FRB): 26000 nM
rapamycin concentrations at which luciferase expression was detected (FKBP12 and FRB): > 1 µM

lower affinity for CRBN than PT-179 (DDB1•CRBN): 2 fold
Kd (DDB1•CRBN; competition with thalidomide–Cy5, KD estimated from Ki): 1010 nM
SMILES: O=C1CCC(N2C(=O)c3cc(F)c(N4CCOCC4)cc3C2=O)C(=O)N1 (centres unmarked) [PK-1016]
PK-1016-induced degradation of SD40-eGFP (in words) (degron-tagged eGFP; HEK293T cells): poor activity; also recorded: poor degrader

SMILES: N#Cc1ccc(N2CCN(Cc3ccc(COc4cccc5c4CN([C@H]4CCC(=O)NC4=O)C5=O)cc3)CC2)c(F)c1 [mezigdomide, reference compound]
degradation activity on SD40-tagged eGFP (in words) (degron-tagged eGFP; fig. S11E): highly potent degradation activity
